Results from patent US20190202799A1, “IMIDAZOLE DERIVATIVES AND THEIR USE IN THE TREATMENT OF AUTOIMMUNE OR INFLAMMATORY DISEASES OR CANCERS” (GLAXOSMITHKLINE INTELLECTUAL PROPERTY (No.2) LIMITED, priority 2016, published 2019).

Test system: MCP-1 production
Assay: LPS induced MCP-1 production from human whole blood
Format: cell-based
Settings: LPS 200 ng/mL, 18-24 hours, read-out: mean pIC50, LPS induced MCP-1 production (converted)
Description: Activation of monocytic cells by agonists of toll-like receptors such as bacterial lipopolysaccharide (LPS) results in production of key inflammatory mediators including MCP-1. Such pathways are widely considered to be central to the pathophysiology of a range of auto-immune and inflammatory disorders.
Blood is collected in a tube containing Sodium heparin (Leo Pharmaceuticals) (10 units of heparin/mL of blood). 96-well compound plates containing 0.5 μL test sample (compound) in 100% DMSO were prepared (two replicates on account of donor variability). 130 μL of whole blood was dispensed into each well of the 96-well compound plates and incubated for 30 min at 37° C., 5% CO2. 10 μL of lipopolysaccharide (from Salmonella typhosa; L6386) made up in PBS (200 ng/mL final assay concentration) was added to each well of the compound plates. The plates were then placed in the humidified primary cell incubator for 18-24 hours at 37° C., 5% CO2. 140 μL of PBS was added to all wells of the compound plates containing blood. The plates were then sealed and centrifuged for 10 mins at 2500 rpm (r.t). […] 150 μL of 2×MSD Read Buffer T (stock 4×MSD Read Buffer T was diluted 50:50 with de-ionised water) was then added to each well and the plates read on the MSD Sector Imager 6000. Concentration response curves for each compound were generated from the data and an IC50 value was calculated.

- IC50: > 20 µM
SMILES: Cc1cc(-c2nc(C(=O)O)cn2Cc2ccccc2)cn(C)c1=O [Example 34, 1-benzyl-2-(1,5-dimethyl-6-oxo-1,6-dihydropyridin-3-yl)-1H-imidazole-4-carboxylic acid]
